Reference: patent US20090270447A1, “2-Aryl-and 2-Heteroarylthiazolyl Compounds, Methods for Their Preparation and Use Thereof” (Wyeth, priority 2008, published 2009)

Experiments:
[1] = system: securin "knock out" cells D8 (Securin−/−); assay: Growth inhibition of securin knock out cells D8 (SRB, 5 days); format: cell-based
Description: (§1) IC50 analysis was performed for selected fused heterobicyclic 2-aryl or 2-heteroarylthiazolyl compounds that were tested on HCT116 cells and Securin “knock out” cell lines.
(§2) Cell Culture—HCT116 and securin “knock out” cells. HCT116 and securin “knock out” cells (D8 and F3) were grown in RPMI+5% fetal bovine serum and gentamycin. They were maintained in a humidified 37° C. incubator with 5% CO2. Since the securin “knock out” cells have active chromosomal instability, cells were used at a low passage number of 2-13 passages. At or before passage 13 a new vial of cells was thawed and used for the screen. Cell seeding—HCT116 cells and securin “knock out” cells were trypsinized and suspenended in RPMI+5% FBS at a density of 27,000 cells/mL. HCT116 and securin “knock out” cells were seeded separately in wells of a 96-well plate (Falcon Cat # 35-3872) at a cell density of 4000 cells per well. Cells were seeded in 150 μL of RPMI media containing 5% FBS and gentamycin. Cell seeding was performed under aseptic conditions. Cells were allowed to attach and grow overnight in a humidified 37° C. incubator.
(§3) Compound Dilution and Dispensation. A series of stock solutions, 10 mg/ml of 2-aryl- or 2-heteroarylthiazolyl compounds to be tested, were brought to room temperature. The compounds were diluted 1:50 in RPMI+5% FBS (Highest concentration 200 μg/mL). The compounds were then serially diluted 1:3 across a deep-well titration plate resulting in final concentrations in the plate of 200, 66.7, 22.2, 7.4, 2.4, 0.8 0.27, 0.091, 0.03, 0.01, and 0.0034 μg/mL with one well left without a compound. 50 μL of this dilution series was added to the 150 μL of cells to result in a final concentration of compound in with the cells of 50, 16.6, 5.5, 1.8, 0.6, 0.2, 0.068, 0.023, 0.0076, 0.0025, and 0.00084 μg/mL. The dilution and addition of compounds to the plates is performed using a Multimek 96 Robot (Beckman Coulter).
(§4) Incubation and analysis. After dosing, the cells in the 96 well plates were returned to the humidified 37° C. incubator. The compounds remained on the cells for 5 days. After 5 days, the cells were fixed to the plates with the addition of 50 μL of 50% (vol/vol) Trichloro Acetic Acid ([…]). The cells were fixed at 4° C. for 1 hour. The plates were washed 5 times in distilled water and allowed to dry. The cells were stained with 0.4% sulforhodamine B (Sigma) in 1% acetic acid. The cells were stained for 15 minutes at room temperature. The plates were then washed 3 times in 1% acetic acid. The plates were dried and the dye was solubilized in 10 mM Tris at pH 8.0. The plates were read on the Absorbence 560 setting on a Victor^2 V Model 1420 Multilabel HTS counter (Perkin Elmer).
(§5) Analysis of Results—IC50 data. Absorbence data was read off of the Victor and was converted to a percentage of the control (untreated) values. IC50 values were graphed and the point at which a 50% inhibition of the control level was determined. […] If the model was not able to determine an IC50, the IC50 was assigned to the lowest concentration that gives a 50% or greater decrease in absorbence compared to control levels. If the calculated IC50 value for a cell line exceeds the top concentration for the assay (typically 50 μg/mL), the assay was scored as >50.
(§6) Selectivity Ratio. The Selectivity Ratio is the ratio of IC50s between the parent cell line and the knock out cell line and is always a positive number and is typically an integer.

[2] = system: securin "knock out" cells F3 (Securin−/−); assay: Growth inhibition of securin knock out cells F3 (SRB, 5 days); format: cell-based
Description: as §1, §2, §3, §4, §5, §6

[3] = system: HCT116 cells (Securin+/+, securin parental cell line HCT116 FB); assay: Growth inhibition of securin parental cells (SRB, 5 days); format: cell-based; details: Homo sapiens, HCT-116, 120 h
Description: as §1, §2, §3, §4, §5

[4] = system: xenografts of a human breast carcinoma cell line (MDA-MB-361); assay: In-vivo activity in tumor xenografts; details: days 1 through 20
Description: Selected fused heterobicyclic 2-aryl- or 2-heteroarylthiazolyl compounds of formula I were tested for their activity in a securin parental cell line (HCT116 FB) and a securin knockout (KO) cell line. […] The in-vivo activity of selected fused heterobicyclic 2-arylarylthiazolyl compounds of formula I was studied in cells growing as xenografts in athymic (nude) mice. The effect of Examples 5-7 and 10 was studied in xenografts of a human breast carcinoma cell line (MDA-MB-361).
In-vivo Activity in Tumor Xenografts. The effectiveness of Examples 5-7 versus Vincristine at controlling tumor growth was studied and the results are summarized in Table 2 and FIG. 1. The 2-arylthiazolyl compounds were formulated 0.5% Methocel™ (methylcellulose) and 0.4% Tween 80™ (polysorbate-80 and oleic acid) and administered daily orally (PO), by gavage or intraperiotenially (IP) by syringe. Tumor mass [(length×width^2)/2] was determined every 7 days. Inhibition of tumor growth was calculated relative to conventional (vehicle treated) controls.

In the case of `O[C@H]1CNCc2nc(-c3ccc(N4CCCC4)cc3)sc21` [Example 7, (7S)-2-(4-pyrrolidin-1-yl-phenyl)-4,5,6,7-tetrahydro[1,3]thiazolo[4,5-c]pyridin-7-ol], the IC50 ([1]; 120 h, securin knock out D8 cells, 5 days, SRB) is reported as 21.6 µM, the “Selectivity Ratio D8” value ([1]; IC50 HCT116 / IC50 securin KO D8) is reported as 2 and the IC50 ([2]; 120 h, securin knock out F3 cells, 5 days, SRB) is reported as 9.67 µM. The “Selectivity Ratio F3” value ([2]; IC50 HCT116 / IC50 securin KO F3) was 4, the IC50 [3] was 36.4 µM and the “S/T = # of Survivors/# of Treated on Day +21 post tumor staging” value ([4]; 5 mg/kg/dose PO) was 10/10. The “% T/C Day 7” value ([4]; 5 mg/kg/dose PO) was 95%, the “Relative Tumor Growth Day 7” value ([4]; 5 mg/kg/dose PO) was 1.57 and the “% T/C Day 14” value ([4]; 5 mg/kg/dose PO) was 86%. For the same compound, the “Relative Tumor Growth Day 14” value ([4]; 5 mg/kg/dose PO) was 4.30, the “% T/C Day 21” value ([4]; 5 mg/kg/dose PO) was 81% and the “Relative Tumor Growth Day 21” value ([4]; 5 mg/kg/dose PO) was 7.45. For the same compound, the “% T/C Day 7” value ([4]; 10 mg/kg/dose PO) was 93%, the “Relative Tumor Growth Day 7” value ([4]; 10 mg/kg/dose PO) was 1.54 and the “% T/C Day 14” value ([4]; 10 mg/kg/dose PO) was 113%. For the same compound, the “Relative Tumor Growth Day 14” value ([4]; 10 mg/kg/dose PO) was 5.64, the “% T/C Day 21” value ([4]; 10 mg/kg/dose PO) was 122% and the “Relative Tumor Growth Day 21” value ([4]; 10 mg/kg/dose PO) was 11.17.
